The source made the active and inactive calls. The calls are words filed in the database; no cut-off is given here.
Assays:
[1] = CoA reactivity in PBS assessed as CoA adduct formation at 1 mM after 8 hrs by UPLC-MS analysis
[2] = target: Fatty acid-binding protein, adipocyte (Homo sapiens) (UniProt P15090); assay: Binding affinity to FABP4 (unknown origin) at 1:1 ratio by fluorescence based thermal shift assay
[3] = target: Transcriptional enhancer factor TEF-3 (Homo sapiens, UniProt Q15561); assay: Binding affinity to Flag-tagged TEAD4 (unknown origin) expressed in HEK293T cells assessed as modification in Cys367 residue at 50 uM after 4 hrs by MS analysis; format: cell-based
[4] = target: LIM domain kinase 1 (Homo sapiens) (UniProt P53667); assay: Inhibition of recombinant human LIMK1 (285 to 638 residues) at 10 uM using cofilin as substrate measured after 40 mins in presence of [gamm33P]ATP by scintillation counting method relative to control
[5] = target: Serine/threonine-protein kinase N2 (Homo sapiens) (UniProt Q16513); assay: Inhibition of human PRK2 (501 to end residues) at 10 uM using AKRRRLSSLRA as substrate measured after 40 mins in presence of [gamma33P]ATP by scintillation counting method relative to control
[6] = organism: Homo sapiens; assay: Inhibition of full length recombinant human PRAK R291E mutant at 10 uM using KKLRRTLSVA as substrate after 40 mins in presence of [gamma33P]ATP by scintillation counting method relative to control
[7] = test system: Glycogen synthase kinase-3 beta (Homo sapiens), P49841 [UNDEFINED MUTATION]; assay: Inhibition of recombinant human GSK3beta H350L mutant (2 to end residues) at 10 uM using phospho GS2 peptide as substrate measured after 40 mins in presence of [gamma33P]ATP by scintillation counting method relative to control
[8] = target: Receptor-type tyrosine-protein kinase FLT3 (Homo sapiens) (UniProt P36888); assay: Inhibition of recombinant human Flt3 (564 to end residues) at 10 uM using EAIYAAPFAKKK as substrate after 40 mins in presence of [gamma33P]ATP by scintillation counting method relative to control
[9] = organism: Homo sapiens; assay: Inhibition of recombinant full-length human PI3K p120gamma R459Q mutant at 10 uM using phosphatidylinositol-4, 5-bisphosphate as substrate measured after 40 mins by fluorescence assay relative to control
[10] = target: Tyrosine-protein kinase Fer (Homo sapiens) (UniProt P16591); assay: Inhibition of recombinant human FER (541 to end residues) at 10 uM using KKKSPGEYVNIEFG as substrate measured after 40 mins in presence of [gamma33P]ATP by scintillation counting method relative to control
[11] = target: Proto-oncogene tyrosine-protein kinase Src (Homo sapiens) (UniProt P12931); assay: Inhibition of recombinant full length human cSRC at 10 uM using KVEKIGEGTYGVVYK as substrate measured after 40 mins in presence of [gamma33P]ATP by scintillation counting method relative to control
[12] = target: Casein kinase I isoform delta (Homo sapiens) (UniProt P48730); assay: Inhibition of recombinant human CK1delta (1 to 294 residues) at 10 uM using KRRRALS(p)VASLPGL as substrate measured after 40 mins in presence of [gamma33P]ATP by scintillation counting method relative to control
[13] = target: NUAK family SNF1-like kinase 2 (Homo sapiens) (UniProt Q9H093); assay: Inhibition of recombinant human full length NUAK2 at 10 uM using KKKVSRSGLYRSPSMPENLNRPR as substrate incubated for 40 mins in presence of [gamma-33P]-ATP by scintillation counting method relative to control
[14] = target: Serine/threonine-protein kinase NIM1 (Homo sapiens) (UniProt Q8IY84); assay: Inhibition of recombinant human full length NIM1 at 10 uM using KKKVSRSGLYRSPSMPENLNRPR as substrate incubated for 40 mins in presence of [gamma-33P]-ATP by scintillation counting method relative to control
[15] = target: Serine/threonine-protein kinase mTOR (Homo sapiens) (UniProt P42345); assay: Inhibition of recombinant full-length human mTOR at 10 uM after 40 mins in presence of [gamma33P]ATP by scintillation counting analysis relative to control
[16] = test system: Saccharomyces cerevisiae; assay: Inhibition of recombinant fungi CK1 (2 to 298 residues) at 10 uM using KRRRALS(p)VAS as substrate incubated for 40 mins in presence of [gamma-33P]-ATP by scintillation counting method relative to control
[17] = target: Cyclin-dependent kinase 14/Cyclin-Y (Homo sapiens) (UniProt O94921+Q8ND76); assay: Inhibition of human CDK14/cyclinY at 10 uM by radiometric assay relative to control; format: protein-complex assay
[18] = target: Cyclin-dependent kinase 13/Cyclin-K (Homo sapiens) (UniProt Q14004+O75909); assay: Inhibition of full-length recombinant human CDK13/cyclinK at 10 uM using RSRSRSRSRSRSRSR as substrate after 120 mins by in presence of [gamma33P]ATP by scintillation counting method relative to control; format: protein-complex assay
[19] = target: CDK12/Cyclin K (Homo sapiens) (UniProt O75909+Q9NYV4); assay: Inhibition of full-length recombinant human CDK12/cyclinK at 10 uM using RSRSRSRSRSRSRSR as substrate after 40 mins by in presence of [gamma33P]ATP by scintillation counting method relative to control; format: protein-complex assay
[20] = target: Cyclin-dependent kinase 1/cyclin B1 (Homo sapiens) (UniProt P06493+P14635); assay: Inhibition of full-length recombinant human CDK1/cyclinB at 10 uM using histone H1 as substrate after 40 mins by in presence of [gamma33P]ATP by scintillation counting method relative to control; format: protein-complex assay
[21] = target: Ribosomal protein S6 kinase alpha-4 (Homo sapiens) (UniProt O75676); assay: Inhibition of recombinant human MSK2 (2 to end residues) at 10 uM using GRPRTSSFAEGKK as substrate measured after 40 mins in presence of [gamma33P]ATP by scintillation counting method relative to control
[22] = organism: Homo sapiens; assay: Inhibition of recombinant human Mer H628Q/R794A mutant (557 to 882 residues) at 10 uM using GGMEDIYFEFMGGKKK as substrate measured after 40 mins in presence of [gamma33P]ATP by scintillation counting method relative to control
[23] = target: 5'-AMP-activated protein kinase catalytic subunit alpha-2 (Homo sapiens) (UniProt P54646); assay: Inhibition of recombinant full length human AMPKalpha2 at 10 uM using AMARAASAAALARRR as substrate after 40 mins in presence of [gamma33P]ATP by scintillation counting method relative to control
[24] = target: Protein arginine N-methyltransferase 1 (Homo sapiens) (UniProt Q99873); assay: Inhibition of human PRMT1 at 10 uM after 1 hr by radioisotope-based assay relative to control
[25] = target: Histone-lysine N-methyltransferase SETD7 (Homo sapiens) (UniProt Q8WTS6); assay: Inhibition of human SET7 at 10 uM relative to control
Histone-lysine N-methyltransferase SETD7 (Homo sapiens), sequence (Q8WTS6 whole entry): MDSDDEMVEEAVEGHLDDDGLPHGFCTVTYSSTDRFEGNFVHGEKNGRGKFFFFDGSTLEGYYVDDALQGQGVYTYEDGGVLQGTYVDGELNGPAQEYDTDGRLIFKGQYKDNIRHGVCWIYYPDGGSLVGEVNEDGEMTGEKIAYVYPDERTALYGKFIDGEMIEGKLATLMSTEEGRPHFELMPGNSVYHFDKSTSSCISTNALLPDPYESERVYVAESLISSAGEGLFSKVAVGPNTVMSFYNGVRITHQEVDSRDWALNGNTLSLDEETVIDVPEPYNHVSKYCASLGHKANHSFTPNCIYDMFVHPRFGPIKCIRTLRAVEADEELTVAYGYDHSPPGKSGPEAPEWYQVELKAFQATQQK

Transcriptional enhancer factor TEF-3, sequence (Q15561 whole entry, the tested form may be a part): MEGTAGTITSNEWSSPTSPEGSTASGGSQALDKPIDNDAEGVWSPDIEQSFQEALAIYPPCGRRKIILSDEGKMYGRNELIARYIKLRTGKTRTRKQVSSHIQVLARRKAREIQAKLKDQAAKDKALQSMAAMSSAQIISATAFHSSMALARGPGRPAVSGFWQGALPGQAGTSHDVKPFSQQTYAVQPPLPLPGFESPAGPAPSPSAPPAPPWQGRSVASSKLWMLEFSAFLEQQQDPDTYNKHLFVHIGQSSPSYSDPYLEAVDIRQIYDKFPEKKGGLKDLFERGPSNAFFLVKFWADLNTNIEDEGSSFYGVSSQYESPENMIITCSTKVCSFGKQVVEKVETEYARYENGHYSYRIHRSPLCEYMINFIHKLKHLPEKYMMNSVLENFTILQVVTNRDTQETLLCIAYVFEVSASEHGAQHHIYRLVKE
Casein kinase I isoform delta (Homo sapiens), sequence (P48730 whole entry, looked up, the tested form may be a part, canonical isoform): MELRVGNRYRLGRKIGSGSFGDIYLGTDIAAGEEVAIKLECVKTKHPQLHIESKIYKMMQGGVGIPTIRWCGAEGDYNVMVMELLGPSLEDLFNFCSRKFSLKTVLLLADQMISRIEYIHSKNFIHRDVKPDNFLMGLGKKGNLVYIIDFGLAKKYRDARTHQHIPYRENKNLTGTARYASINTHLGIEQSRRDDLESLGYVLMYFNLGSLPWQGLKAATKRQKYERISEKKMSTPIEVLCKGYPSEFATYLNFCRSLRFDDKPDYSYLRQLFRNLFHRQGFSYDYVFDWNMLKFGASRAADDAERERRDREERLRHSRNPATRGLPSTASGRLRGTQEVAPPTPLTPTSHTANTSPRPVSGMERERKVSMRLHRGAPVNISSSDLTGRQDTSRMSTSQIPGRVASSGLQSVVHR
Cyclin-dependent kinase 1/cyclin B1 (Homo sapiens), sequence (P06493 whole entry, looked up): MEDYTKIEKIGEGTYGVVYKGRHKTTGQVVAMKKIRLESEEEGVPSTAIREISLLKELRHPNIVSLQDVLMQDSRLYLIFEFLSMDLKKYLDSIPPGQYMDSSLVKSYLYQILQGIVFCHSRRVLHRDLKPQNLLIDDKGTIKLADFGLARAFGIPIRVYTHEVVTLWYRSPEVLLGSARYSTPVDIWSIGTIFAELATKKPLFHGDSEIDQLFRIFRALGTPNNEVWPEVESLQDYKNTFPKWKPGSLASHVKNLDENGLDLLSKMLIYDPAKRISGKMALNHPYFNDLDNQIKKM
Cyclin-dependent kinase 1/cyclin B1 (Homo sapiens), sequence (P14635 whole entry, looked up): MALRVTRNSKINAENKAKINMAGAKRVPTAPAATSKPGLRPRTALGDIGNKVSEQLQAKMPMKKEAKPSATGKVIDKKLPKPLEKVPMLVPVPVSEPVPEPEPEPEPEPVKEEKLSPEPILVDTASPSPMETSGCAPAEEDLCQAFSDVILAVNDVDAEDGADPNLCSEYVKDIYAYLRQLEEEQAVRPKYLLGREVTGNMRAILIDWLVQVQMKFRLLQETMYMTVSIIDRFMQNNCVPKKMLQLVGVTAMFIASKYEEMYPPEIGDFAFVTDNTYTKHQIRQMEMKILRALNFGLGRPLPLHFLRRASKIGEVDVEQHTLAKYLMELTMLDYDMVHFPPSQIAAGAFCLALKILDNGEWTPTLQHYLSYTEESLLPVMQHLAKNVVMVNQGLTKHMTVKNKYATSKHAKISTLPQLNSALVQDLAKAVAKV
5'-AMP-activated protein kinase catalytic subunit alpha-2 (Homo sapiens), sequence (P54646 whole entry, looked up): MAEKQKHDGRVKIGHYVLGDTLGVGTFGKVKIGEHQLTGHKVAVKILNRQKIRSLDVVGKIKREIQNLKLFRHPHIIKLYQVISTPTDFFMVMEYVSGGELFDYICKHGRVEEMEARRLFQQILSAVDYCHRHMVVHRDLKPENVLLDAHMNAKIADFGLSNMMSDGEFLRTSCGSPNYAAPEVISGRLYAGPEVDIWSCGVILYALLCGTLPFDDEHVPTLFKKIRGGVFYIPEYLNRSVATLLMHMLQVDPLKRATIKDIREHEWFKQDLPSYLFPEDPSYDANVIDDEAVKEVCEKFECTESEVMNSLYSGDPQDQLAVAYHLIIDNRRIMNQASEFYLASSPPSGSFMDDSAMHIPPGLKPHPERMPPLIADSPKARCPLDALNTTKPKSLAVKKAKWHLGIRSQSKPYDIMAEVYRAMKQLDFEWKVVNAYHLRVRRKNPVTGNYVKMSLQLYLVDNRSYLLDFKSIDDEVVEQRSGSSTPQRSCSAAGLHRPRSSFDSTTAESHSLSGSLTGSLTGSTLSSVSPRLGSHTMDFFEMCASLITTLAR
LIM domain kinase 1 (Homo sapiens), sequence (P53667 whole entry, looked up, the tested form may be a part): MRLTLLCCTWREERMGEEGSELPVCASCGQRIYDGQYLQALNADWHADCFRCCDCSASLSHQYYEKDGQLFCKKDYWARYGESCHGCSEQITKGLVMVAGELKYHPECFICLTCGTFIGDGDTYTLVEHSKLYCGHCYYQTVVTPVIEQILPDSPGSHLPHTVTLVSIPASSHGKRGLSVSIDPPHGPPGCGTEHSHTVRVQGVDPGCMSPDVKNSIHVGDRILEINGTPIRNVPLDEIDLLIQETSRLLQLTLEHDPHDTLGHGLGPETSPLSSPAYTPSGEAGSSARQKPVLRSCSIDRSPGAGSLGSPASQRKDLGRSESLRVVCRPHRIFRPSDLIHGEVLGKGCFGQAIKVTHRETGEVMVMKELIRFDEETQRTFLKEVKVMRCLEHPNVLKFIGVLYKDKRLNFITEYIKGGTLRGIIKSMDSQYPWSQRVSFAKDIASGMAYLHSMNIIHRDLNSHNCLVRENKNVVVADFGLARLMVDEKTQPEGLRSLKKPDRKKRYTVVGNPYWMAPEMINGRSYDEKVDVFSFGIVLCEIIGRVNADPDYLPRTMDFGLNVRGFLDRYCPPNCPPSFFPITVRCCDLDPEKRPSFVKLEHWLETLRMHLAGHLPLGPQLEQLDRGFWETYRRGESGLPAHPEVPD
Proto-oncogene tyrosine-protein kinase Src (Homo sapiens), sequence (P12931 2-536 limits assumed): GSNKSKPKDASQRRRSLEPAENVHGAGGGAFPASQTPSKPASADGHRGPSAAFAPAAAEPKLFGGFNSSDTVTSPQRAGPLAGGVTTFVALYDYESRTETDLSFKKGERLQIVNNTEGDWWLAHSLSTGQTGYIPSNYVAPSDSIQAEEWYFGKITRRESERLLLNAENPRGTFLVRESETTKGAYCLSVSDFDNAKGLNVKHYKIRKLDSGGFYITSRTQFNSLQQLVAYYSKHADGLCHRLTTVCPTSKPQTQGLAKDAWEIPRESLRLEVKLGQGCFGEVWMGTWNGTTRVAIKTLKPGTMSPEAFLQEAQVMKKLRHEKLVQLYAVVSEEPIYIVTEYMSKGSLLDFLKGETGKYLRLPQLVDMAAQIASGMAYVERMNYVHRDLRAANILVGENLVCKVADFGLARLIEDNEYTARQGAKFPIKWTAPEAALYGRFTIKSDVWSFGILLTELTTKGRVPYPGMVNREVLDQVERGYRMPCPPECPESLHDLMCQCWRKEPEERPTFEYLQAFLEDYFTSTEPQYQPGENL
Serine/threonine-protein kinase N2 (Homo sapiens), sequence (Q16513 whole entry, looked up): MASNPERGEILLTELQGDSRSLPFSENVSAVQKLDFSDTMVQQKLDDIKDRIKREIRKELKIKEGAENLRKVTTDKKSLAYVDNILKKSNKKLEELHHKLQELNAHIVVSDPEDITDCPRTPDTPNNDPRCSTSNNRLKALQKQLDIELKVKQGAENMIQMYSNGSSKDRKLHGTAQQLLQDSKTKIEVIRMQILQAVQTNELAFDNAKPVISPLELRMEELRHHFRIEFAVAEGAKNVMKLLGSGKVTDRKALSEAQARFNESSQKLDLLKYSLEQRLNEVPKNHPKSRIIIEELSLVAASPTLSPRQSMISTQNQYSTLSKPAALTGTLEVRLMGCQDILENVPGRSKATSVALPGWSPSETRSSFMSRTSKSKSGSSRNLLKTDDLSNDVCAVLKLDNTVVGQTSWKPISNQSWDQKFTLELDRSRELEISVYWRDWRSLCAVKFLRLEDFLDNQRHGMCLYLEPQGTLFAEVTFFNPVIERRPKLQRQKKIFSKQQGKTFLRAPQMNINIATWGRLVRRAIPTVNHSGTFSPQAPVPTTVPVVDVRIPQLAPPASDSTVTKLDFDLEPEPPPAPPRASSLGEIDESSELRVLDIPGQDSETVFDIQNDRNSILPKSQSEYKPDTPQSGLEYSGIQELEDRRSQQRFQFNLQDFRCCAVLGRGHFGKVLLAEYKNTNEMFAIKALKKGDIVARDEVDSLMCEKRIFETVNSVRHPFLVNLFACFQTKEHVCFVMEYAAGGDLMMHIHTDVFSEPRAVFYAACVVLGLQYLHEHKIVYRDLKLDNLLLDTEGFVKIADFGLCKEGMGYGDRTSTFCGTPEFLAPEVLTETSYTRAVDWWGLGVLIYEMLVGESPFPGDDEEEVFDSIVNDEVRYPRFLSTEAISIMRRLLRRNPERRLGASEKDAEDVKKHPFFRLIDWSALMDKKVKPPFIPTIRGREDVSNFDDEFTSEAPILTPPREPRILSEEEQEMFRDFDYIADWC
Fatty acid-binding protein, adipocyte (Homo sapiens), sequence (P15090 2-132 limits assumed): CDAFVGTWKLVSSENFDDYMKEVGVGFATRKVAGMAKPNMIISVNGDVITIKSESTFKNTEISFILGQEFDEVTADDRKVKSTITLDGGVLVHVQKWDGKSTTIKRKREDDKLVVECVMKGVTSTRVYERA

SMILES: C=CS(=O)(=O)Nc1ccc(Cc2ccc3ccccc3c2)cc1
- Activity [1]: inactive
- Activity [2]: Active
- Activity [3]: Active
- inhibition [4]: -1%
- inhibition [5]: 4%
- inhibition [6]: 2%
- inhibition [7]: -2%
- inhibition [8]: 8%
- inhibition [9]: 5%
- inhibition [10]: 9%
- inhibition [11]: -4%
- inhibition [12]: 3%
- inhibition [13]: -6%
- inhibition [14]: -5%
- inhibition [15]: 5%
- inhibition [16]: 5%
- inhibition [17]: 1%
- inhibition [18]: 17%
- inhibition [19]: 11%
- inhibition [20]: 4%
- inhibition [21]: 12%
- inhibition [22]: 13%
- inhibition [23]: 5%
- inhibition [24]: 3%
- inhibition [25]: 2%
